Series [1] has as its system HCT-116 human colon cancer cells. Particulars: for cell death of HCT-116 cells on chip without liver compartment cells: chips seeded with HCT-116 cells only, no cells in liver compartment, 24 hours. The protocol:
FIG. 16 Tegafur dose response. […] The chips were treated with indicated concentrations of tegafur for 24 hours. The first graph (FIG. 16A) is a plot of percentage dead cells vs. tegafur or 5-FU concentration after 24 hours of re-circulation on the chip. The second graph (FIG. 16B) is a similar dose response using a traditional in vitro cell culture assay with HCT 116 cells using a 48 hour exposure. HCT-116 cells were seeded on poly-lysine treated glass coverslips and exposed to either tegafur or 5-FU at the indicated concentrations. After a 48 hr incubation, coverslips were treated as described above and the percentage of cell death was determined.
(§1) LIVE/DEAD stain is a two-component stain consisting of calcein AM and ethidium homodimer. Living cells actively hydrolyze the acetoxymethyl ester (AM) moiety of calcein AM to produce bright green fluorescence of calcein. In contrast, cells that have compromised membrane integrity allow the normally membrane impermeant ethidium homodimer to stain the nucleus of dead or dying cells fluorescent red. The cell permeant nuclear stain, Hoechst 33342 acts as a general stain for all cells. Together with the appropriate filter sets, living cells fluoresce green, dying or dead cells red, and all cells are quantified by a blue nuclear fluorescence. For experiments described herein, trypan blue was used at 0.2% (w/v), calcein AM at 1:20,000, propidium iodide at 1:5,000, and Hoechst 33342 at 10 μg/ml. Cells were visualized with a M2Bio stereofluorescence microscope (Zeiss). All experiments were repeated at least three times and measurements done in triplicate.
[…] Tegafur was added to the re-circulating medium at various concentrations for 24 hours and the cells labeled with Hoechst 33342, a membrane permeable DNA dye, and ethidium homodimer, a membrane impermeable DNA dye (see Methods Section).

A further series has as its system HCT-116 cells. As to the kind of experiment: Traditional in vitro cell culture assay, HCT-116 cells on poly-lysine treated glass coverslips. It counts as cell-based, human. Particulars: for cell death of HCT-116 cells, traditional cell culture assay: coverslips, no liver cells, 48 hr exposure. The procedure:
FIG. 16 Tegafur dose response. Chips were seeded with HepG2-C3A cells in the liver compartment and HCT-116 colon cancer cells in the target tissues compartment. The chips were treated with indicated concentrations of tegafur for 24 hours. The first graph (FIG. 16A) is a plot of percentage dead cells vs. tegafur or 5-FU concentration after 24 hours of re-circulation on the chip. The second graph (FIG. 16B) is a similar dose response using a traditional in vitro cell culture assay with HCT 116 cells using a 48 hour exposure. HCT-116 cells were seeded on poly-lysine treated glass coverslips and exposed to either tegafur or 5-FU at the indicated concentrations. After a 48 hr incubation, coverslips were treated as described above and the percentage of cell death was determined.
To measure the cytotoxic effects of tegafur against colon cancer cells, the microscale chip was prepared with HepG2-C3A cells in the liver compartment and HCT-116 human colon cancer cells in the target tissue compartment. Tegafur was added to the re-circulating medium at various concentrations for 24 hours and the cells labeled with Hoechst 33342, a membrane permeable DNA dye, and ethidium homodimer, a membrane impermeable DNA dye (see Methods Section).

Series [2] concerns HCT116 cells. As to the kind of experiment: LIVE/DEAD cytotoxicity assay on the microscale chip system (HepG2/C3A liver, HCT116 target tissues). The class given is cell-based, human. Particulars: 1 μM, 24 hour treatment, compared to untreated control cell chips.
Source text: as §1
Two different assays to detect apoptosis were investigated. The first assay was the immunofluorescence-based terminal deoxynucleotidyl transferase BrdU nick end labeling (TUNEL) technique available in kit form as APOPTAG™ (Intergen Co., MA) (see Methods section).

Series [3] relates to HepG2/C3A cells. Put plainly: LIVE/DEAD assay, HepG2/C3A cells on poly-D-lysine treated glass coverslips. It counts as cell-based, human. Particulars: 1 μM, 24 hours.
Source text: as §1
The LIVE/DEAD assay was optimized (see Methods section) using cells grown on glass coverslips. Briefly, HepG2/C3A cells were seeded onto poly-D-lysine treated glass coverslips and treated with and without 1 μM staurosporine for 24 hours. […]

The test system of series [4] is HepG2/C3A cells. Put plainly: APOPTAG (TUNEL) apoptosis assay, HepG2/C3A cells on glass coverslips. It counts as cell-based, human. Particulars: 1 μM, 24-hour incubation, compared to untreated controls. An excerpt: (§2) In contrast to annexin V labeling, the APOPTAG™ kit (Intergen Co., MA) uses terminal deoxynucleotidyl transferase to label free 3′-OH DNA termini exposed during apoptotic DNA degradation and visualization using immunofluorescence (Li, X., Traganos, F., Melamed, M. R., and Darzynkiewicz, Z. (1995). Single-step procedure for labeling DNA strand breaks with flourescein- or BODIPY-conjugated deoxynucleotides: detection of apoptosis and bromodeoxyuridine incorporation. Cytometry 20, 172-180). Although this method is highly specific for apoptosis, the procedure cannot be done on-chip due to the fixation and incubation steps. Briefly, microscale chips were run under specified experimental conditions, the cell chips were removed from their housing units, fixed in 1% paraformaldehyde and processed with the APOPTAG™ kit using the manufacturer's protocol.
(§3) Two different assays to detect apoptosis were investigated. The first assay was the immunofluorescence-based terminal deoxynucleotidyl transferase […] nick end labeling (TUNEL) technique available in kit form as APOPTAG™ (Intergen Co., MA) (see Methods section). The assay was first optimized using cells grown on glass coverslips. Briefly, HepG2/C3A cells were seeded onto poly-D-lysine treated glass coverslips and treated with and without staurosporine. Coverslips were processed as described (see Methods section).

For series [5], the system named is HepG2/C3A cells in the liver compartment and HCT116 cells in the target tissues compartment. Put plainly: Annexin V-FITC apoptosis assay on microscale chip system. The class given is cell-based, human. Particulars: 1 μM, 6-hour treatment, compared to untreated control cell chips.
Procedure: With the microscale chip, annexin V-FITC labeling was visualized directly on-chip, by first flushing the system with PBS, then recirculating annexin V-FITC (10 μg/ml in annexin V binding buffer, Clontech) for 30 min. Cells were then visualized directly using a FITC filter set.
Briefly, the microscale chip cell chips were seeded with HepG2/C3A cells in the liver compartment and HCT116 cells in the target tissues compartment. Cell chips were loaded onto the microscale chip system and treated with and without 1 μM staurosporine as described above. After a 6-hour incubation, the re-circulating medium was switched to PBS containing Annexin V-FITC and Hoechst 33342 and allowed to flow through the system for 30 minutes. Cell chips were removed from the acrylic housing and visualized under a fluorescent microscope. Cells were visualized under a fluorescent microscope and fluorescent images of identical fields were obtained using the appropriate filter sets.
Series [6] has as its system HCT116 cells. As to the kind of experiment: APOPTAG (TUNEL) apoptosis assay on microscale chip (HepG2/C3A liver, HCT116 target tissues). It counts as cell-based, human. Particulars: 1 μM, 24 hour exposure, compared to untreated controls.
Source text: as §2, §3

The subject of series [7] is HT29 human colon cancer cells. As to the kind of experiment: Microscale chip, HepG2-C3A cells in liver compartment and HT29 cells in target tissue compartment, LIVE/DEAD staining. The class given is cell-based. Particulars: 24 hours; for efficacy against HT-29 colon cancer cells on chip: HepG2-C3A cells in liver compartment, HT-29 cells with mutant p53.
Source text: as §1

The record followed here is patent US9273276B2, “Devices and methods for pharmacokinetic-based cell culture system” (priority 2001, dated 2016).

“Also recorded” adds a separate entry of the source.

`O=c1[nH]cc(F)c(=O)[nH]1` [5-FU, 5-fluorouracil]: the “cell death of HCT-116 cells on chip without liver compartment cells” value in series [1] is listed as “caused substantial cell death”. For the same compound, the “exposure before cytotoxicity was observed, traditional cell culture assay” value with HCT-116 cells (HCT-116 cells on coverslips) is ≥ 48 h. The “cell death of HCT-116 cells, traditional cell culture assay” value in the series on HCT-116 cells is listed as “triggered cell death”.

For `CN[C@@H]1C[C@H]2O[C@@](C)([C@@H]1OC)n1c3ccccc3c3c4c(c5c6ccccc6n2c5c31)C(=O)NC4` [Staurosporine], the “cell death of HCT116 cells on chip (LIVE/DEAD)” value with HCT116 cells [2] is listed as “Significant cell death; also recorded: significant apoptosis (or cytotoxicity)”. The “cell death of HepG2/C3A cells (LIVE/DEAD)” value in the series on HepG2/C3A cells [3] was “clearly cause cell death”. The “apoptosis of HepG2/C3A cells (APOPTAG)” value in the series with HepG2/C3A cells [4] was “caused significant apoptosis”. In series [5], the “apoptosis on chip (annexin V-FITC)” value was “caused significant apoptosis”. Besides, the “apoptosis of HCT116 cells on chip (APOPTAG)” value in the series with HCT116 cells [6] was “significant apoptosis (or cytotoxicity)”.

On to `CC1=C(CC(=O)O)c2cc(F)ccc2/C1=C\c1ccc([S+](C)[O-])cc1` (centres unmarked) [Sulindac, sulindac sulfoxide], for which the “efficacy against HT-29 colon cancer cells on chip” value in series [7] is “effective”. Further, in series [7] (One hundred micromoles, in the absence of the HepG2-C3A liver cells), the “cell death of HT29 cells in target tissue compartment” value is listed as “minimal levels of cell death”.

In the case of `O=c1[nH]c(=O)n(C2CCCO2)cc1F` (centres unmarked) [Tegafur, 5-fluoro-1-(2-tetrahydrofuryl)-2,4(1H,3H)-pyrimidi-nedione], in series [1], the “cytotoxicity to HCT-116 cells on chip” value is “cytotoxic to HCT-1-16-cells in a dose dependent fashion” and the “cell death of HCT-116 cells on chip without liver compartment cells” value is on record as “did not cause significant cell death”. For the same compound, the “efficacy against HT-29 colon cancer cells on chip” value in series [7] was “ineffective”. Further, in the series with HCT-116 cells, the “cell death of HCT-116 cells, traditional cell culture assay” value is listed as “ineffective”.
